Measured values from publication PMC7385619, “A triple action CDK4/6-PI3K-BET inhibitor with augmented cancer cell cytotoxicity” (Cell Discovery, 2020).

Experiments:
mTOR = mTOR (Homo sapiens, UniProt P42345); assay: In vitro kinase assay, mTOR; type: biochemical; settings: Fig. 1b; italicized values from the literature (italics not visible)
kinome (kinase panel) [1] = molecular target: T1, kinome (kinase panel) (Homo sapiens, UniProt O43318); assay: KINOMEscan assay (Eurofins DiscoverX); type: binding; settings: TAK1 (MAP3K7); 1000 nM; read-out: Percent Control
T1 construct: purchased Eurofins DiscoverX

kinome (kinase panel) [2] = molecular target: T2, kinome (kinase panel) (Homo sapiens, UniProt P22694); assay: KINOMEscan assay (Eurofins DiscoverX); type: binding; settings: PKAC-beta (Entrez PRKACB); 1000 nM; read-out: Percent Control
T2 construct: purchased Eurofins DiscoverX

kinome (kinase panel) [3] = molecular target: T3, kinome (kinase panel) (Homo sapiens, UniProt P53779); assay: KINOMEscan assay (Eurofins DiscoverX); type: binding; settings: JNK3 (Entrez MAPK10); 1000 nM; read-out: Percent Control
T3 construct: purchased Eurofins DiscoverX

kinome (kinase panel) [4] = molecular target: T4, kinome (kinase panel) (Homo sapiens, UniProt Q9NSY1); assay: KINOMEscan assay (Eurofins DiscoverX); type: binding; settings: BIKE (Entrez BMP2K); 1000 nM; read-out: Percent Control
T4 construct: purchased Eurofins DiscoverX
T4 sequence (Q9NSY1 whole entry): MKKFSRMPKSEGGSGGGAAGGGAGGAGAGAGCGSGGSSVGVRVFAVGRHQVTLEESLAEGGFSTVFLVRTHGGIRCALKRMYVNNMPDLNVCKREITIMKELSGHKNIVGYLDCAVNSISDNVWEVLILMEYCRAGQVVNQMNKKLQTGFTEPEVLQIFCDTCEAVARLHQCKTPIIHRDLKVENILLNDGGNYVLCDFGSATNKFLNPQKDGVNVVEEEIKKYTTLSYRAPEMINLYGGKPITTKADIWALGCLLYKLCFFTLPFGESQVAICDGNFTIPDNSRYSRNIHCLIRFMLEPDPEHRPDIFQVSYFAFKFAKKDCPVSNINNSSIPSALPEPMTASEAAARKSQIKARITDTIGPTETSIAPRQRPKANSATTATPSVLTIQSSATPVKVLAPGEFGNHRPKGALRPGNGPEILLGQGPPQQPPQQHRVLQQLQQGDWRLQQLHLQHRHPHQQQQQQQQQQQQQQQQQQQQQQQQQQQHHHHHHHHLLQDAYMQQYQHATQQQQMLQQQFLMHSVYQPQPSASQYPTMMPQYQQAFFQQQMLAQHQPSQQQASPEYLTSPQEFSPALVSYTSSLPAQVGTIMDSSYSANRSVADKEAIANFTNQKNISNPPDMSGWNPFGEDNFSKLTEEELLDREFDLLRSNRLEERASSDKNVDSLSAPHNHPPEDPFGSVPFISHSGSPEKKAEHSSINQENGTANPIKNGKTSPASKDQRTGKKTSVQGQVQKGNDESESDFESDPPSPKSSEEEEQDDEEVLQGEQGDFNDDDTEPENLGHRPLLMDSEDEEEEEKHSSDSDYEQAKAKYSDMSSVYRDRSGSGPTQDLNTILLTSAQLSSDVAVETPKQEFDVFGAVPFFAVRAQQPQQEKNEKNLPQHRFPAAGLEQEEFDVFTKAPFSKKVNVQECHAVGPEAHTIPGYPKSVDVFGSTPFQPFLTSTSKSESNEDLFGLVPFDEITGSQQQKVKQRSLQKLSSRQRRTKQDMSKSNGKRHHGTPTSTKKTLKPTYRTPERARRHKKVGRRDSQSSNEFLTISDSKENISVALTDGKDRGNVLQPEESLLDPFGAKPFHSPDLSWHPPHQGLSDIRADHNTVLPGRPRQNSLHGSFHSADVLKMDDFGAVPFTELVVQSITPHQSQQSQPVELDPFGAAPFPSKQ

T3 sequence (P53779 whole entry): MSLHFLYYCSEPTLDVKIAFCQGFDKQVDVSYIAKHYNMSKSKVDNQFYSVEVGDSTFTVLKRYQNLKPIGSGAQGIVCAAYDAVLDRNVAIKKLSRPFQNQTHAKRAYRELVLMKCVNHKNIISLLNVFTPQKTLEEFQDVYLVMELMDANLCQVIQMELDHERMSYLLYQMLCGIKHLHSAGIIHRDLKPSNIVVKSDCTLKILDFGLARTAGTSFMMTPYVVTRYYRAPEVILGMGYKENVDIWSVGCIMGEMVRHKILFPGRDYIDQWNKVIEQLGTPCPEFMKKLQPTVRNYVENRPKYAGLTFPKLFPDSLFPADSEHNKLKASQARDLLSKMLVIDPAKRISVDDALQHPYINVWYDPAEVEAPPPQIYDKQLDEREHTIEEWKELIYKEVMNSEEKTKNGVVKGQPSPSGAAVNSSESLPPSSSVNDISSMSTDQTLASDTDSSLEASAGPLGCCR
T1 sequence (O43318 whole entry): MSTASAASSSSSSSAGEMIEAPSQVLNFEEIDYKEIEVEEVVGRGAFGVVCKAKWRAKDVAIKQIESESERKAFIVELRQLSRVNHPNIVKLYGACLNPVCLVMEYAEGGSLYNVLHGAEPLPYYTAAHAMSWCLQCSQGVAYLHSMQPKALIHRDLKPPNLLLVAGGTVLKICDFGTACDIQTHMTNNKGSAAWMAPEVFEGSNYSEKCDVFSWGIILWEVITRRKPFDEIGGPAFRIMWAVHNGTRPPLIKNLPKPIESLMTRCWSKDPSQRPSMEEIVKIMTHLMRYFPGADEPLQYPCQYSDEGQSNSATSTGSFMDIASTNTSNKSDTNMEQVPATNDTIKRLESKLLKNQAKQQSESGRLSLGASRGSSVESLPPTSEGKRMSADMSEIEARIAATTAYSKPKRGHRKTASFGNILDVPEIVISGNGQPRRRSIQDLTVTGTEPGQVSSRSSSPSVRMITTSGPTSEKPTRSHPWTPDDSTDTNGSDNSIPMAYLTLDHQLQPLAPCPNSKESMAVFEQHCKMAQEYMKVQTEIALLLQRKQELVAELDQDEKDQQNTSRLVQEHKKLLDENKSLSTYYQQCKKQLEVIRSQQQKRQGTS

Compound `CN(C)C(=O)c1cc2cnc(Nc3ccc(-c4csc5c(=O)cc(N6CCOCC6)oc45)cc3)nc2n1C1CCCC1` [SRX3177] has an IC50 (mTOR) of 6.91 µM, a remaining binding at 1 µM (kinome (kinase panel) [1]) of 94% and a remaining binding at 1 µM (kinome (kinase panel) [2]) of 100%. It also gave a remaining binding at 1 µM (kinome (kinase panel) [3]) of 55% and a remaining binding at 1 µM (kinome (kinase panel) [4]) of 10%.
